Data set [1] relates to rabbit gastric lipase (RGL) followed by porcine pancreatic lipase (PPL). Briefly: In vitro sequential digestion, SGF followed by SIF, pH-stat. Format: in vitro ADME.
Method: (§1) 10 wt % oil in water emulsions stabilised by 0.3 wt % polyoxyethylene sorbitan mono-oleate (Tween® 80) were prepared by mixing the Tween 80 into the oil phase at 40° C., then mixing with the water phase using a magnetic stirrer.
(§2) The lipid emulsion (2 mL) containing 200 mg of fat was subjected to gastrointestinal in vitro lipolysis. […] For gastric digestion, the sample was incubated for 90 minutes with 8.5 mL of simulated gastric fluid (SGF), which consisted of 150 mM NaCl, 450 U/mL pepsin, 18 U/mL rabbit gastric lipase at 37° C. and a pH of 5.5.
The intestinal digestion step was performed in the pH stat where the pH was kept constant at 6.8 by addition of NaOH (0.05 M). […] The intestinal digestion step starts when the temperature reaches 37±0.5° C. The pH was adjusted to pH 6.8 and after incubation of two minutes at this pH and temperature, a pancreatin solution (5 mM tris, 150 mM NaCl at pH 6.8) was added. The final composition of the intestinal fluid was 10 mM CaCl2, 2 mM mixed bile salts, 0.75 mM phospholipid, 150 mM NaCl and 4 mM tris (hydroxymethyl) aminomethane buffer. The intestinal digestion step was carried out for 3 hours in a titration manager from RADIOMETER®. During the intestinal phase of digestion, the kinetics of digestion were followed using a pH-stat (TIM856, RADIOMETER®) technique and expressed as titratable acid (rather than fatty acid) that was calculated by the equation:
TA: Total titratable acid released, mmol; VNaOH: volume of NaOH used to titrate the released acid in 3 h, mL.
(§3) Since the digestion of dietary lipids involves lipases of both gastric and intestinal origin, lipid digestibility was assessed using two digestion models i) simulated intestinal fluid (SIF) with porcine pancreatic lipase (PPL) and ii) sequential digestion in simulated gastric fluid (SGF) with rabbit gastric lipase (RGL) followed by simulated intestinal fluid (SIF) with porcine pancreatic lipase (PPL).
For data set [2], the target named is T1, porcine pancreatic lipase (PPL) (Sus scrofa, UniProt P00591).
T1 sequence (P00591 1-450): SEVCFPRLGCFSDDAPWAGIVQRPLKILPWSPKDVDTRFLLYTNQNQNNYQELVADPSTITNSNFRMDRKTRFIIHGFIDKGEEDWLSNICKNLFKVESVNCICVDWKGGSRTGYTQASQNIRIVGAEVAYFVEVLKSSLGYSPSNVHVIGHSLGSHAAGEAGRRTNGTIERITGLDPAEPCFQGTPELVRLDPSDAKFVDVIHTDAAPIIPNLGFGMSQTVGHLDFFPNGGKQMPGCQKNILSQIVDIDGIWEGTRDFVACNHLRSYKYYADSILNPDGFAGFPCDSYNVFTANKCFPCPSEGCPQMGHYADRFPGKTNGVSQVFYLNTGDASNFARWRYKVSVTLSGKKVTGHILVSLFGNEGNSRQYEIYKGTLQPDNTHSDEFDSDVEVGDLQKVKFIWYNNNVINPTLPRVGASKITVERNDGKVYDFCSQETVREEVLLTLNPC
T1 sequence (P02703 23-112 partner): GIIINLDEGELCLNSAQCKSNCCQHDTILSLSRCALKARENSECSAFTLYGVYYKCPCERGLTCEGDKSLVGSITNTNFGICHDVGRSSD
The note with it: pig, 3 h, pH 11.5. From the text: Because many fatty acids are only partially ionised at pH 6.8, direct titration gives only partial picture of the extent of lipid digestion, instead back titration to pH 11.5 or GC-FAME analysis is required to estimate the full extent of digestion.

The target in data set [3] is T1, porcine pancreatic lipase (PPL). Nature of the data set: In vitro digestion, simulated intestinal fluid (SIF) model, pH-stat. Format: in vitro ADME. Details: by porcine pancreatic lipase (from pancreatin); purchased SIGMA-ALDRICH P7585; host or cells: porcine pancreas extract (pancreatin). The note with it: SIF alone; emulsion with 200 mg fat, pH 6.8, 37° C.
Method: as §1, §2
The intestinal digestion step was performed in the pH stat where the pH was kept constant at 6.8 by addition of NaOH (0.05 M). […] The intestinal digestion step starts when the temperature reaches 37±0.5° C. […] During the intestinal phase of digestion, the kinetics of digestion were followed using a pH-stat (TIM856, RADIOMETER®) technique and expressed as titratable acid (rather than fatty acid) that was calculated by the equation: […]
as §3

Consider `CCCC(=O)OCC(COC(=O)CCC)OC(=O)CCC` [tributyrin], for which the “initial lipolysis rate in SIF compartment” value in data set [1] (SGF-SIF digestion (90 min SGF pre-exposure, pH 5.5)) was found to be 44.1 ± 8.8 µmol/min. The “hydrolysis in the stomach / extent of gastric lipolysis” value in data set [1] (in words, gastric compartment of the model) is recorded as “extensive hydrolysis in the stomach”. Also, the “lipolysis by gastric lipase” value in data set [1] (indicated by decreased total fatty acid release in SIF after RGL pre-exposure) was around 60%. The extent of digestion in data set [2] was found to be 101.5±0.9%. The “initial (maximal) rate of lipolysis” value in data set [3] is 223 ± 59 µmol/min.

The values above are taken from patent publication US20260007629A1, “DIETARY BUTYRATE AND ITS USES” (SOCIETE DES PRODUITS NESTLE S.A., priority 2019, published 2026).
